We go through two compounds from paper PMC7615343, “Fluorination Influences the Bioisostery of Myo-Inositol Pyrophosphate Analogs” (Chemistry (Weinheim an der Bergstrasse, Germany), 2023).

This experiment deals with T1, PPIP5K2^1-366 (human PPIP5K2 kinase domain) (Homo sapiens, UniProt O43314).
T1 construct: one comprised residues 1–366; made in house
T1 sequence (O43314 1-366): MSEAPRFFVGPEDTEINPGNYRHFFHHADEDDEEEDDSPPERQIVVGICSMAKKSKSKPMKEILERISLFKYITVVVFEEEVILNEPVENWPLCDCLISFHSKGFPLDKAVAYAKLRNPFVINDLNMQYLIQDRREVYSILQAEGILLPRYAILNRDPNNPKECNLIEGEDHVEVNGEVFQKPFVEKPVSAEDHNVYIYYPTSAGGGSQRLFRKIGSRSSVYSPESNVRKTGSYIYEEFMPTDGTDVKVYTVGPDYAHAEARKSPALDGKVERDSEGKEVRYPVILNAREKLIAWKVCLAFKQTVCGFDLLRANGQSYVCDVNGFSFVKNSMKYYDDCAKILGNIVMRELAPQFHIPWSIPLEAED
The experiment is described as follows: PPIP5K2KD reverse kinase assay (ATP formation from ADP and 1,5(PP)2-IP4). The experiment is classed as biochemical. To be noted: 25 °C, 30 min, 0.1 mM ADP, 100 nM [1,5]PP-IP4, ATP production measured; this work; read-out: IC50, inhibition of the reverse kinase activity of PPIP5K2^1-366. Here is the method: An alternative method to study the interaction of PP-IP5 analogs with PPIP5K2^KD is to derive IC50 values for inhibition of a “reverse-kinase” assay that records ATP formation when the enzyme is incubated with ADP and 1,5(PP)2-IP4.[29, 31] This approach avoids the need to use radiolabeled material and HPLC analysis. Moreover, the assay of ATP production is inherently more sensitive compared to measuring ATP consumption. […] In addition to the catalytic pocket, the PPIP5K2 kinase reaction cycle also utilizes a surface-mounted substrate capture site; the latter was initially identified through its binding of 5PA-IP5.[31] […] In this case, the higher affinity of the capture site for less polar molecules may explain why 5PA-IP5 is the only analog so far detected in this site.
For the reverse kinase assay, PPIP5K2^1-366 (2.5 μg mL^-1) was incubated at 25 °C for 30 min with 20 μL buffer containing 20 mM Tris-HCl, pH 7.5, 10 mM MgCl2, 0.1 mM ADP, 100 nM [1,5]PP-IP4 and various concentrations of either 5PCP-IP5 or 5PCF2P-IP5. The generated ATP was measured using a Molecular Probes ATP Determination kit (Thermo Fisher Scientific catalog number A22066). The IC50 value was calculated using GraphPad Prism. […]
Diffraction data were collected using APS beamlines 22 -ID. […] The structure was determined using rigid body and direct Fourier synthesis, and refined with t he equivalent and expanded test sets. […]

With `O=P(O)(O)CP(=O)(O)O[C@H]1[C@H](OP(=O)(O)O)[C@@H](OP(=O)(O)O)[C@@H](OP(=O)(O)O)[C@@H](OP(=O)(O)O)[C@@H]1OP(=O)(O)O` [5PCP-IP5], the concentration for half-maximal inhibition (IC50) was 223 nM.

Take `O=P(O)(O)O[C@H]1[C@@H](OP(=O)(O)O)[C@H](OP(=O)(O)O)[C@@H](OP(=O)(O)C(F)(F)P(=O)(O)O)[C@H](OP(=O)(O)O)[C@H]1OP(=O)(O)O` [5PCF2P-IP5]: the half-inhibitory concentration (IC50) was 583 nM.
